Drawing on ChEMBL document CHEMBL5335780, “The emerging role of mixed lineage kinase 3 (MLK3) and its potential as a target for neurodegenerative diseases therapies” (Eur J Med Chem, 2023), this text covers IC50 for 1 compound.

Assay [1] deals with Mitogen-activated protein kinase kinase kinase 9 (Homo sapiens, UniProt P80192). Description: Inhibition of MLK1 (unknown origin).
Assay [2] deals with Mitogen-activated protein kinase kinase kinase 11 (Homo sapiens, UniProt Q16584). Briefly: Inhibition of MLK3 (unknown origin).
Mitogen-activated protein kinase kinase kinase 11, sequence (Q16584 whole entry): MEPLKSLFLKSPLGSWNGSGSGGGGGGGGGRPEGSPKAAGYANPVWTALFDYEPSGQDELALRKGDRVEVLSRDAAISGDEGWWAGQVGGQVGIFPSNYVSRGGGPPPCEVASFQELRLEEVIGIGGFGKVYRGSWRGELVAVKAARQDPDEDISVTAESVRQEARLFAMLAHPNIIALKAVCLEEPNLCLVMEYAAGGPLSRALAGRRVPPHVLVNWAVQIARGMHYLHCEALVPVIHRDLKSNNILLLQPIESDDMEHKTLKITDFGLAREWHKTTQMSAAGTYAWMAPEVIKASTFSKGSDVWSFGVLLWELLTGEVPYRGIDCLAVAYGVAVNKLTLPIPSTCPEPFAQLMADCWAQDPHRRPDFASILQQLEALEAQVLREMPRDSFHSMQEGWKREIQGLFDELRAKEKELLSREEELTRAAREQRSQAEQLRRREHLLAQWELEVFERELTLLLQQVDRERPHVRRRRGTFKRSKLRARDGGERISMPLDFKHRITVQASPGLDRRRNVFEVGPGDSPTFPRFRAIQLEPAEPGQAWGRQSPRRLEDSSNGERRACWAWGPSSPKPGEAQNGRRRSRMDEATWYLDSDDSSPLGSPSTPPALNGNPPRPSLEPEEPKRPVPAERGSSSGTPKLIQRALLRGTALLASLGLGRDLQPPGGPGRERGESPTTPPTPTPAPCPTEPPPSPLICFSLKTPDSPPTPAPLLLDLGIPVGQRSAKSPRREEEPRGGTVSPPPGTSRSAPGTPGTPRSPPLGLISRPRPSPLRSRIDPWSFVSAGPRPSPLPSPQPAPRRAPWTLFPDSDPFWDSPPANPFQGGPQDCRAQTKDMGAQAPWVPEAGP

Mitogen-activated protein kinase kinase kinase 9, sequence (P80192 whole entry): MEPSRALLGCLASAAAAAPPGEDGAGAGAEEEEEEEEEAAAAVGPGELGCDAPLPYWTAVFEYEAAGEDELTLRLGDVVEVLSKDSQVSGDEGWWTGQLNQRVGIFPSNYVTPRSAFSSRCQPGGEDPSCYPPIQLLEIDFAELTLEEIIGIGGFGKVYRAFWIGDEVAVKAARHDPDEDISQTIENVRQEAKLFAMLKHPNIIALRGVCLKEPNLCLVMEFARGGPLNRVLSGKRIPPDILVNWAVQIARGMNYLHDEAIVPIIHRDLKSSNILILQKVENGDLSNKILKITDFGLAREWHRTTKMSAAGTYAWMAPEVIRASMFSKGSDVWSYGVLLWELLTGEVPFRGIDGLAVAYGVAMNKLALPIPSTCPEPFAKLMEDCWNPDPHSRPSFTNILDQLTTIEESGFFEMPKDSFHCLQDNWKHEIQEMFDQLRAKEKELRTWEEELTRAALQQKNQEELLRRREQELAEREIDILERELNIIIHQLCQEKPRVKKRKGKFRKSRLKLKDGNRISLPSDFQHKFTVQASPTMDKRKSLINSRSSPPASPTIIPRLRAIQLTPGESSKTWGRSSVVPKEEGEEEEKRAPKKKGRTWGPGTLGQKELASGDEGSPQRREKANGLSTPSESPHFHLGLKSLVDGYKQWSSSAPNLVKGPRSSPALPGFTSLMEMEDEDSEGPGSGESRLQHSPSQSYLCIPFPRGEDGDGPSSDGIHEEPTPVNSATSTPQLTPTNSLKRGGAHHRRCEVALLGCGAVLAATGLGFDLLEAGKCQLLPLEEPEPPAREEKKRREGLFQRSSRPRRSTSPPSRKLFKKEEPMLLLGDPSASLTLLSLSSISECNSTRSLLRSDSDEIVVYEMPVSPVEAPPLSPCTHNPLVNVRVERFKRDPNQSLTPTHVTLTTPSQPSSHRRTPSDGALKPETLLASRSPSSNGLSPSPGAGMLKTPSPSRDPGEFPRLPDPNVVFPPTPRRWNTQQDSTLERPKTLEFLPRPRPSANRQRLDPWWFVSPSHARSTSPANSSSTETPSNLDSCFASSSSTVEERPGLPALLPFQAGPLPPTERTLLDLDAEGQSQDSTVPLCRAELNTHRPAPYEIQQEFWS

Turning to `OCCN1CCN(Cc2ccc(-c3cnc4[nH]cc(-c5cccc(Cl)c5)c4c3)cc2)CC1`, the half-maximal inhibitory concentration (IC50) in assay [1] turned out to be 44.7 nM; in assay [2] it was 23.7 nM.
